Test results reported in patent US10350206B2, “Benzyl substituted indazoles as BUB1 inhibitors” (Bayer Pharma Aktiengesellschaft, priority 2014, dated 2019).
Values belong to the molecule of their own block, whether it stands above or below them.

Tests used:
[1] = system: Bub1 kinase (histone 2A phosphorylation); assay: H2A Formation-Assay (cell-based mechanistic assay, co-treatment with Nocodazole); details: 16 h, Nocodazole 1 μg/ml together with test compound for 16 h; read-out: Biological Assay 4.1: H2A Formation IC50
Experimental: Biological Assay 4.1: Formation-Assay
Cell-Based Mechanistic Assay: Changes of Phosphorylation Status of Histone 2A by Inhibition of Kinase Activity of Bub1
This assay determines the suppression of histone 2A phosphorylation by a Bub1 kinase inhibitor during co-treatment with Nocodazole. 25000 cells (cells were ordered from ATCC) were seeded in 96 well plate for 5 h at 37° C. Cells were treated with Nocodazole (1 μg/ml) and varying concentrations (between 3 nM and 10 μM) of test compounds for 16h. Cells were fixed (20 min, Fixing solution R&D), washed three times with PBS and blocked with Odyssey blocking buffer before incubating with the primary antibody against phosphorylated H2A (5 μg/ml ABIN482721) overnight at […]. After washing, secondary IRDye-labeled antibody mix with cell stains was added for 1h and washed again with PBS. Plates were scanned with LiCor Odyssey Infrared Imager CLx at 800 nm for P-H2A and at 700 nm for cell stains Draq5/Sapphire. The quotient of 800 nm and 700 nm for Nocodazole only treated cells was set as 100% and the quotient of 800 nm and 700 nm of untreated cells was set as 0%. […] The IC50 values were determined by means of a 4 parameter fit.
(§1) Histone H2A is an immediate intracellular substrate of Bub1 kinase. Determination of the phosphorylation status of Histone H2A provides a direct measure of the intracellular activity of Bub1 kinase.

[2] = system: HeLa human cervical tumor cells; assay: Proliferation assay (HeLa cell line); format: cell-based; details: 96 h, 4 days incubation, crystal violet, read-out: Biological Assay 2: Proliferation assay (HeLa cell line) median IC50
Experimental: Human tumour cells were originally obtained from the American Type Culture Collection (ATCC), the Deutsche Sammlung von Mikroorganismen und Zellkulturen (DSMZ, German Collection of Microorganisms and Cell Cultures), or Epo GmbH Berlin. Cultivated HeLa human cervical tumor cells (DSMZ ACC-57) were plated at a density of 3000 cells/well in a 96-well multititer plate in 200 μL of growth medium supplemented 10% fetal calf serum. After 24 hours, the cells of one plate (zero-point plate) were stained with crystal violet (see below), while the medium of the other plates was supplemented with the test substances in various concentrations (0 μM, as well as in the range of 0.001-10 μM; the final concentration of the solvent dimethyl sulfoxide was adjusted to 0.1%) using a Hewlett-Packard HP D300 Digital Dispenser. The cells were incubated for 4 days in the presence of test substances. […] After three washing cycles of the fixed cells with water, the plates were dried at room temperature. The cells were stained by adding 100 μL/measuring point of a 0.1% crystal violet solution (pH 3.0). After three washing cycles of the stained cells with water, the plates were dried at room temperature. The dye was dissolved by adding 100 μL/measuring point of a 10% acetic acid solution. […] The change of cell number, in percent, was calculated by normalization of the measured values to the absorption values of the zero-point plate (=0%) and the absorption of the untreated (0 μm) cells (=100%). The IC50 values were determined by means of a 4 parameter fit.

[3] = system: HeLa human cervical tumor cells; assay: Proliferation Assay (HeLa+Paclitaxel); format: cell-based; details: 3 nM paclitaxel, test substance 92 hours; read-out: Biological Assay 3: Proliferation Assay (HeLa + Paclitaxel) IC50
Experimental: Proliferation Assay (HeLa+Paclitaxel):
Cultivated HeLa human cervical tumor cells (DSMZ ACC-57) were plated at a density of 3000 cells/well in a 96-well multititer plate in 200 μL of growth medium supplemented 10% fetal calf serum. After 24 hours, the cells of one plate (zero-point plate) were stained with crystal violet (see below). The medium of the other plates was supplemented with 3 nM of paclitaxel (Sigma-Aldrich) and the cells were incubated at 37° C. After 4 hours the test substances were added in various concentrations (0 μM, as well as in the range of 0.001-10 μM; the final concentration of the solvent dimethyl sulfoxide was adjusted to 0.1%) using a Hewlett-Packard HP D300 Digital Dispenser. The cells were incubated for another 92 hours at 37° C. in the presence of test substances. […] After three washing cycles of the fixed cells with water, the plates were dried at room temperature. The cells were stained by adding 100 μL/measuring point of a 0.1% crystal violet solution (pH 3.0). After three washing cycles of the stained cells with water, the plates were dried at room temperature. The dye was dissolved by adding 100 μL/measuring point of a 10% acetic acid solution. […] The change of cell number, in percent, was calculated by normalization of the measured values to the absorption values of the zero-point plate (=0%) and the 5 absorption of the untreated (0 μm) cells (=100%). The IC50 values were determined by means of a 4 parameter fit.

[4] = system: Bub1 kinase (pre-induced phospho-histone 2A); assay: H2A Abrogation-Assay (cell-based mechanistic assay, pre-treatment with Nocodazole); details: Nocodazole 1 μg/ml 16 h, then test compound 1 h; read-out: Biological Assay 4.2: H2A Abrogation IC50
Experimental: Biological Assay 4.2: Abrogation-Assay
Cell-Based Mechanistic Assay: Changes of Phosphorylation Status of Pre-Induced Phospho-Histone 2A by Inhibition of Kinase Activity of Bub1
This assay measures the inhibition of histone 2A phosphorylation, which was induced by pre-treatment of the cells with Nocodazole, by a Bub1 kinase inhibitor. 25000 cells (cells were ordered from ATCC) were seeded in 96 well plate for 5 h at 37° C. Cells were treated with Nocodazole (1 μg/ml). After 16h varying concentrations (between 3 nM and 10 μM) of test compounds were added and the cells were incubated for another 1h. Cells were fixed (20 min, Fixing solution R&D), washed three times with PBS and blocked with Odyssey blocking buffer before incubating with the primary antibody against phosphorylated H2A (5 μg/ml ABIN482721) overnight at 2-8° C. After washing, secondary IRDye-labeled antibody mix with cell stains was added for 1h and washed again with PBS. Plates were scanned with LiCor Odyssey Infrared Imager CLx at 800 nm for P-H2A and at 700 nm for cell stains Draq5/Sapphire. The quotient of 800 nm and 700 nm for Nocodazole only treated cells was set as 100% and the quotient of 800 nm and 700 nm of untreated cells was set as 0%. […] The IC50 values were determined by means of a 4 parameter fit.
as §1

[5] = target: T1, catalytic domain of human Bub1 (amino acids 704-1085) (Homo sapiens, UniProt O43683); assay: Bub1 kinase assay (TR-FRET); format: biochemical; details: 10 μM ATP, 60 min reaction, pH 7.5; read-out: Biological Assay 1: Bub1 kinase assay median IC50
T1 construct: catalytic domain of human Bub1 (amino acids 704-1085); His6 (N); made in house; host or cells: Hi5 insect cells
T1 sequence (O43683 704-1085): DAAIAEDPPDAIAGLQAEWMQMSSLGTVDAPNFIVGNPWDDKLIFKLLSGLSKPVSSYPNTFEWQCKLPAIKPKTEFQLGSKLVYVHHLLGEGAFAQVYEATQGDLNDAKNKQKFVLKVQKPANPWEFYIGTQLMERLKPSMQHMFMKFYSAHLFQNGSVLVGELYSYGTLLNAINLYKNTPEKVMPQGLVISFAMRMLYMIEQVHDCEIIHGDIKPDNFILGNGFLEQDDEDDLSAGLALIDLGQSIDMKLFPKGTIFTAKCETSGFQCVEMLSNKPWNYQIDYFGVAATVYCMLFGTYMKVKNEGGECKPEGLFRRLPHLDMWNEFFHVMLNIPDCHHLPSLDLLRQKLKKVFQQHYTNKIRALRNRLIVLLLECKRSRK
Experimental: To this end, 100-fold concentrated compound solutions (in DMSO) were previously prepared by serial dilution (1:3.4) of 2 mM stocks in a clear low volume 384-well source microtiter plate (Greiner Bio-One, Frickenhausen, Germany), from which 50 nL of compounds were transferred into a black low volume test microtiter plate from the same supplier. […] The resulting mixture (5 μL final volume) was incubated at 22° during 60 min., and the reaction was stopped by the addition of 5 μL of an aqueous EDTA-solution (50 mM EDTA, in 100 mM HEPES pH 7.5 and 0.2% (w/v) bovine serum albumin) which also contained the TR-FRET detection reagents (0.2 μM streptavidin-XL665 [Cisbio Bioassays, Codolet, France] and 1 nM anti-phosho-Serine antibody [Merck Millipore, cat. #35-001] and 0.4 nM LANCE EU-W1024 labeled anti-mouse IgG antibody [Perkin-Elmer, product no. AD0077, alternatively a Terbium-cryptate-labeled anti-mouse IgG antibody from Cisbio Bioassays can be used]). The stopped reaction mixture was further incubated 1 h at 22° C. in order to allow the formation of complexes between peptides and detection reagents. Subsequently, the amount of product was evaluated by measurement of the resonance energy transfer from the Eu-chelate-antibody complex recognizing the Phosphoserine residue to the streptavidin-XL665 bound to the biotin moiety of the peptide. […] IC50 values were calculated by fitting the normalized inhibition data to a 4-parameter logistic equation (Minimum, Maximum, IC50, Hill; Y=Max+(Min−Max)/(1+(X/IC50)Hill)).

SMILES: COc1cnc(-c2nn(Cc3c(F)cc(OCCO)cc3F)c3ccccc23)nc1Nc1ccncc1Cl [Example 2-1-1, 2-{4-[(3-{4-[(3-chloropyridin-4-yl)amino]-5-methoxypyrimidin-2-yl}-1 H-indazol-1-yl)methyl]-3,5-difluorophenoxy}ethanol]
IC50 [1]: 94 nM
IC50 [2]: 4100 nM
IC50 [3]: 240 nM
IC50 [4]: 10 nM
IC50 [5]: 13 nM

SMILES: COc1cnc(-c2nn(Cc3c(F)cc(OCCO)cc3F)c3ccccc23)nc1Nc1ccnc(NC(C)=O)c1 [Example 2-1-4, N-{4-[(2-{1-[2,6-difluoro-4-(2-hydroxyethoxy)benzyl]-1H-indazol-3-yl}-5-methoxypyrimidin-4-yl)amino]pyridin-2-yl}acetamide]
IC50 [1]: 8.2 nM
IC50 [2]: > 10000 nM
IC50 [3]: 100 nM
IC50 [4]: 150 nM
IC50 [5]: 8.3 nM

SMILES: COc1cnc(-c2nn(Cc3c(F)cc(OCCO)cc3F)c3ccccc23)nc1Nc1ccncc1C [Example 2-1-5, 2-{3,5-difluoro-4-[(3-{5-methoxy-4-[(3-methylpyridin-4-yl)amino]pyrimidin-2-yl}-1H-indazol-1-yl)methyl]phenoxy}ethanol]
IC50 [1]: 6.9 nM
IC50 [2]: 3100 nM
IC50 [3]: 150 nM
IC50 [4]: 600 nM
IC50 [5]: 10 nM

SMILES: COc1cnc(-c2nn(Cc3c(F)cc(OCCO)cc3F)c3ccccc23)nc1Nc1ccnc(C(F)F)c1 [Example 2-1-7, 2-(4-{[3-(4-{[2-(difluoromethyl)pyridin-4-yl]amino}-5-methoxypyrimidin-2-yl)-1H-indazol-1-yl]methyl}-3,5-difluorophenoxy)ethanol]
IC50 [1]: 27 nM
IC50 [2]: 9100 nM
IC50 [3]: 480 nM
IC50 [5]: 23 nM

SMILES: COc1cnc(-c2nn(Cc3c(F)cc(OCCO)cc3F)c3ccccc23)nc1Nc1ccnc(F)c1 [Example 2-1-11, 2-{3,5-difluoro-4-[(3-{4-[(2-fluoropyridin-4-yl)amino]-5-methoxypyrimidin-2-yl}-1H-indazol-1-yl)methyl]phenoxy}ethanol]
IC50 [1]: 4.9 nM
IC50 [2]: 5100 nM
IC50 [3]: 110 nM
IC50 [4]: 5.2 nM
IC50 [5]: 19 nM

SMILES: COc1cnc(-c2nn(Cc3c(F)cc(OCCO)cc3F)c3ccccc23)nc1Nc1cc(C)ncc1F [Example 2-1-12, 2-{3,5-difluoro-4-[(3-{4-[(5-fluoro-2-methylpyridin-4-yl)amino]-5-methoxypyrimidin-2-yl}-1H-indazol-1-yl)methyl]phenoxy}ethanol]
IC50 [1]: 6 nM
IC50 [2]: > 10000 nM
IC50 [3]: 420 nM
IC50 [4]: 11 nM
IC50 [5]: 33 nM

SMILES: COc1cnc(-c2nn(Cc3c(F)cc(OCCO)cc3F)c3ccccc23)nc1Nc1ccncn1 [Example 2-1-13, 2-[3,5-difluoro-4-({3-[5-methoxy-4-(pyrimidin-4-ylamino)pyrimidin-2-yl]-1H-indazol-1-yl}methyl)phenoxy]ethanol]
IC50 [1]: 18 nM
IC50 [2]: > 10000 nM
IC50 [3]: 510 nM
IC50 [4]: 2.7 nM
IC50 [5]: 5 nM

SMILES: COc1cnc(-c2nn(Cc3c(F)cc(OCCO)cc3F)c3ccccc23)nc1Nc1cc(NC(C)=O)ncc1C [Example 2-1-14, N-{4-[(2-{1-[2,6-difluoro-4-(2-hydroxyethoxy)benzyl]-1H-indazol-3-yl}-5-methoxypyrimidin-4-yl)amino]-5-methylpyridin-2-yl}acetamide]
IC50 [1]: 39 nM
IC50 [2]: 1500 nM
IC50 [3]: 1100 nM
IC50 [4]: 11 nM
IC50 [5]: 420 nM

Continued by falling IC50 [1], values first:

IC50 [1]: 87 nM
IC50 [2]: 3100 nM
IC50 [3]: 300 nM
IC50 [4]: 74 nM
IC50 [5]: 17 nM
SMILES: COc1cnc(-c2nn(Cc3c(F)cc(OCCO)cc3F)c3ccccc23)nc1Nc1ccnc(NC(=O)NC2CC2)c1 [Example 2-1-16, 1-cyclopropyl-3-{4-[(2-{1-[2,6-difluoro-4-(2-hydroxyethoxy)benzyl]-1H-indazol-3-yl}-5-methoxypyrimidin-4-yl)amino]pyridin-2-yl}urea]

IC50 [1]: 56 nM
IC50 [2]: 8500 nM
IC50 [3]: 370 nM
IC50 [4]: 890 nM
IC50 [5]: 7.7 nM
SMILES: COc1cnc(-c2nn(Cc3c(F)cc(OCCO)cc3F)c3ccccc23)nc1Nc1ccncc1F [Example 2-1-6, 2-{3,5-difluoro-4-[(3-{4-[(3-fluoropyridin-4-yl)amino]-5-methoxypyrimidin-2-yl}-1H-indazol-1-yl)methyl]phenoxy}ethanol]

IC50 [1]: 24 nM
IC50 [2]: > 10000 nM
IC50 [3]: 360 nM
IC50 [4]: 1.2 nM
IC50 [5]: 9.8 nM
SMILES: COc1cnc(-c2nn(Cc3c(F)cc(OCCO)cc3F)c3ccccc23)nc1Nc1ccnc(NC(=O)C2CC2)c1 [Example 2-1-15, N-{4-[(2-{1-[2,6-difluoro-4-(2-hydroxyethoxy)benzyl]-1H-indazol-3-yl}-5-methoxy-pyrimidin-4-yl)amino]pyridin-2-yl}cyclopropanecarboxamide]
